For one test, the target named is dopaminergic D3 receptor (Homo sapiens, UniProt P35462). Kind of test: Binding assay D3 (h), [3H]methyl-spiperone, CHO cells. Set-up: expressed in transfected cells; host or cells: CHO cells. The note with it: read-out: D3 [%]. A digest of the protocol: (§1)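 Single-concentration test (1×10^−6 M). Total and non-specific binding were counted by scintillation, and their difference defines specific binding.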

For test [1], the target named is T1, serotoninergic 5-HT1A receptor (Homo sapiens, UniProt P08908).
T1 sequence (P08908 1-422): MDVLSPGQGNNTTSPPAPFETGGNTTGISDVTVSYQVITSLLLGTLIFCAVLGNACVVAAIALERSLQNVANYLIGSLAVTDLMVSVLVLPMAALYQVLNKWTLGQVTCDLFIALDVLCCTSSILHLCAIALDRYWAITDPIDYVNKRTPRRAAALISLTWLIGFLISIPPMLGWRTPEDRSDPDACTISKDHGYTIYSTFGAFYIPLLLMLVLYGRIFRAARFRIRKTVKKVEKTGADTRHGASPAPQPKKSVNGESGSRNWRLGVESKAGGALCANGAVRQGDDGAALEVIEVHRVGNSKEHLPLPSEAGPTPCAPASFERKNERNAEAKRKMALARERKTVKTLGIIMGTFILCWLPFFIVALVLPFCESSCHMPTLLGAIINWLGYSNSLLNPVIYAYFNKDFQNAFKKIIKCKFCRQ
Kind of test: Binding assay 5-HT1A (h), [3H]8-OH-DPAT, HEK-293 cells. On the set-up: expressed in transfected cells; host or cells: HEK-293 cells. The note with it: read-out: 5-HT1A. A digest of the protocol:
as §1

In the next test the target is T2, adrenergic α2C receptor (Homo sapiens, UniProt P18825).
T2 sequence (P18825 1-462): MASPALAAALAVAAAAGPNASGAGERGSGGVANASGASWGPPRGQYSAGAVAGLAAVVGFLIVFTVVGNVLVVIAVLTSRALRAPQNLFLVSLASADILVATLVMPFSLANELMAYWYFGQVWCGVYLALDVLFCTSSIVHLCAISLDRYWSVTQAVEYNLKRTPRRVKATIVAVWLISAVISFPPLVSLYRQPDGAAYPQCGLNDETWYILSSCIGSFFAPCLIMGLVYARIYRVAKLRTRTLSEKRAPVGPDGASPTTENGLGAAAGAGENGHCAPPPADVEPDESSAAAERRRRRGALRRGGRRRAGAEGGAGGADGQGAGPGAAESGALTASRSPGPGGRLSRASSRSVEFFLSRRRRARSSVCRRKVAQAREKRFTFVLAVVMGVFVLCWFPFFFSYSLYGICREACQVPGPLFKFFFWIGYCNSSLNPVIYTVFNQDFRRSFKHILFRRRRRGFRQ
Kind of test: Binding assay α2C (h), [3H]RX 821002, CHO cells. Set-up: expressed in transfected cells; host or cells: CHO cells. The note with it: read-out: α2C [%]. A digest of the protocol: as §1

Test [2] concerns the target serotoninergic 5-HT2A receptor (Homo sapiens, UniProt P28223). Kind of test: Binding assay 5-HT2A (h), [3H]ketanserin, HEK-293 cells. Set-up: expressed in transfected cells; host or cells: HEK-293 cells. The note with it: read-out: 5-HT2A. A digest of the protocol:
as §1

Test [3] deals with serotoninergic 5-HT6 receptor (Homo sapiens, UniProt P50406). Kind of test: Binding assay 5-HT6 (h), [3H]LSD, CHO cells. On the set-up: expressed in transfected cells; host or cells: CHO cells. The note with it: read-out: 5-HT6. A digest of the protocol:
as §1

Test [4] concerns the target T3, serotoninergic receptor 5-HT2C (Homo sapiens, UniProt P28335).
T3 construct: expressed in transfected cells; host or cells: HEK-293 cells
T3 sequence (P28335 33-458): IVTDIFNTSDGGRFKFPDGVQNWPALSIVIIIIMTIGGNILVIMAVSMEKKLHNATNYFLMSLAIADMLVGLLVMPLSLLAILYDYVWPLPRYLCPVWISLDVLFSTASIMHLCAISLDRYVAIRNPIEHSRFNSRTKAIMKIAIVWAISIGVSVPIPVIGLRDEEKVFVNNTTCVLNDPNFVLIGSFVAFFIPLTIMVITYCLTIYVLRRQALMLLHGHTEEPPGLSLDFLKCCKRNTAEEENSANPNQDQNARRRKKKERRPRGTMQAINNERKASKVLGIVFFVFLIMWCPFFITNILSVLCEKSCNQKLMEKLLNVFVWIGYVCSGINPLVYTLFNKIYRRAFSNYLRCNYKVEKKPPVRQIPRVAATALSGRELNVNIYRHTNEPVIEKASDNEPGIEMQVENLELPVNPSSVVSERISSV
Kind of test: Binding assay 5-HT2C (h), [3H]mesulergine, HEK-293 cells. The note with it: read-out: 5-HT2C [%]. A digest of the protocol:
as §1

A further test deals with sigma σ receptor. Kind of test: Binding assay σ (non-selective), [3H]DTG, rat cerebral cortex. The note with it: percent inhibition of control specific binding; compounds tested at 1×10^−6 M. The essentials: as §1
Test [5] has as its target serotoninergic 5-HT7 receptor (Homo sapiens, UniProt P34969). Kind of test: Binding assay 5-HT7 (h), [3H]LSD, CHO cells. On the set-up: expressed in transfected cells; host or cells: CHO cells. The note with it: read-out: 5-HT7. The essentials:
as §1

For test [6], the target named is T4, serotonine transporter (SERT) receptor (Homo sapiens, UniProt P31645).
T4 construct: expressed in transfected cells; host or cells: CHO cells
T4 sequence (P31645 whole entry): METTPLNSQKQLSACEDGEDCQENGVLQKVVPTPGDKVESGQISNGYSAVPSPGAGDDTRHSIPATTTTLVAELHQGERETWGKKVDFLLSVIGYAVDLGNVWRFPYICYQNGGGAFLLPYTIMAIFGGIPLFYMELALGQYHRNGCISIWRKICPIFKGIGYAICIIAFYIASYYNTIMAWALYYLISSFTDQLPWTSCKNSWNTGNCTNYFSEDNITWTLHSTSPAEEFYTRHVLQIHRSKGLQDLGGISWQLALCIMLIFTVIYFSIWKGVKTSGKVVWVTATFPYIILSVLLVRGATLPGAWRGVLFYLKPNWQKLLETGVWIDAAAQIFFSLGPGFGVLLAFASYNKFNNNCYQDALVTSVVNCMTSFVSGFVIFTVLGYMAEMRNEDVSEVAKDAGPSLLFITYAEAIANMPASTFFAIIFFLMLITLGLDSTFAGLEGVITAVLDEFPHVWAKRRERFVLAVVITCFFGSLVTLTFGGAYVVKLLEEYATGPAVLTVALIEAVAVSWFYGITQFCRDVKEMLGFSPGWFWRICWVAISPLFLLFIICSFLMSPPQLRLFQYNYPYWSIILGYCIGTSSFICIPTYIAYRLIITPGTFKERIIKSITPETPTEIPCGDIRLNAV
Kind of test: Binding assay SERT (h), [3H]imipramine, CHO cells. The note with it: read-out: SERT [%]. The essentials:
as §1

The target of test [7] is histaminergic H1 receptor (Homo sapiens, UniProt P35367). Kind of test: Binding assay H1 (h), [3H]pyrilamine, HEK-293 cells. On the set-up: expressed in transfected cells; host or cells: HEK-293 cells. The note with it: read-out: H1 [%]. The essentials:
as §1

The test system of another test is adrenergic α1 receptor. Kind of test: Binding assay α1 (non-selective), [3H]prazosin, rat cerebral cortex. The note with it: percent inhibition of control specific binding; compounds tested at 1×10^−6 M. The essentials:
as §1

A further test addresses dopaminergic D2 receptor (Homo sapiens, UniProt P14416). Kind of test: Binding assay D2S (h), [3H]methyl-spiperone, HEK-293 cells. Set-up: expressed in transfected cells; host or cells: HEK-293 cells. The note with it: read-out: D2 [%]. A digest of the protocol:
as §1

For another test, the target named is T5, muscarinic M3 receptor (Homo sapiens, UniProt P20309).
T5 construct: expressed in transfected cells; host or cells: CHO cells
T5 sequence (P20309 whole entry): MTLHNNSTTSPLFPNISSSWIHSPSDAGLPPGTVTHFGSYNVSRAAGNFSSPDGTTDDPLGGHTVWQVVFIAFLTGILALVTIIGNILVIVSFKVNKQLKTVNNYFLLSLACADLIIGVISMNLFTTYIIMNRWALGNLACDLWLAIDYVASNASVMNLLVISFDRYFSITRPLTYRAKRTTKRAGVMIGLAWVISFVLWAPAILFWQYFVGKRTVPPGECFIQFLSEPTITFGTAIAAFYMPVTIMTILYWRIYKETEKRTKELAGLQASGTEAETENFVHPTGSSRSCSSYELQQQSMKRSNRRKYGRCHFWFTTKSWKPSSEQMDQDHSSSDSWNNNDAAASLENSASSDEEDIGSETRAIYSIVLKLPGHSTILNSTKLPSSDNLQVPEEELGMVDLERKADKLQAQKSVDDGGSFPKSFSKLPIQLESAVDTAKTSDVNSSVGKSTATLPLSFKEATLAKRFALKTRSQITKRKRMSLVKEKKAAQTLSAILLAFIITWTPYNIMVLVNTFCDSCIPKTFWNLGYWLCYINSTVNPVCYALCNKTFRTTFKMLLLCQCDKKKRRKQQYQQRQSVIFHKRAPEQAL
Kind of test: Binding assay M3 (h), [3H]4-DAMP, CHO cells. The note with it: read-out: M3 [%]. The essentials:
as §1

Structures are written as SMILES.

serotoninergic 5-HT6 receptor, sequence (P50406 whole entry): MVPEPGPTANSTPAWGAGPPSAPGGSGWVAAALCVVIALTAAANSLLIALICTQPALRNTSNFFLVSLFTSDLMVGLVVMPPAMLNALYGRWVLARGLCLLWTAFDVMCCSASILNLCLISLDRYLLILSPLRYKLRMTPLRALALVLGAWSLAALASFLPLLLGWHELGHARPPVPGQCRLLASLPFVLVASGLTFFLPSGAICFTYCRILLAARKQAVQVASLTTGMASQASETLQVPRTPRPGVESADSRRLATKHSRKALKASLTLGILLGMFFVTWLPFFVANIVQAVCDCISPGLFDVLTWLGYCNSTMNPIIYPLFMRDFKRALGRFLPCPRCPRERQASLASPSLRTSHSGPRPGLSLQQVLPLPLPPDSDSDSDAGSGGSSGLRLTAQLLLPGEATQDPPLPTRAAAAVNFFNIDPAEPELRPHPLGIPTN
serotoninergic 5-HT7 receptor, sequence (P34969 whole entry): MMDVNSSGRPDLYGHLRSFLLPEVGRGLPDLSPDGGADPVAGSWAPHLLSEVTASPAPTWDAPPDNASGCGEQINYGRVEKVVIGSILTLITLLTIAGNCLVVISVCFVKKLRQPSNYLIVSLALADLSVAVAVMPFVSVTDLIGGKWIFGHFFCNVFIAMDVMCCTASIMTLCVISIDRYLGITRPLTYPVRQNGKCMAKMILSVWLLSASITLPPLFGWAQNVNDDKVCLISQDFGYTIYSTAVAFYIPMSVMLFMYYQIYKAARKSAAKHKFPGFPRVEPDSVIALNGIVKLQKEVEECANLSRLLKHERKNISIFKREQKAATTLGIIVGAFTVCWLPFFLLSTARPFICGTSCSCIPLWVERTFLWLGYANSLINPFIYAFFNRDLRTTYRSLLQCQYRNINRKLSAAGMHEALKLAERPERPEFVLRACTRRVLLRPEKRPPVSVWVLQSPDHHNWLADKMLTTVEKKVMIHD
dopaminergic D3 receptor, sequence (P35462 whole entry): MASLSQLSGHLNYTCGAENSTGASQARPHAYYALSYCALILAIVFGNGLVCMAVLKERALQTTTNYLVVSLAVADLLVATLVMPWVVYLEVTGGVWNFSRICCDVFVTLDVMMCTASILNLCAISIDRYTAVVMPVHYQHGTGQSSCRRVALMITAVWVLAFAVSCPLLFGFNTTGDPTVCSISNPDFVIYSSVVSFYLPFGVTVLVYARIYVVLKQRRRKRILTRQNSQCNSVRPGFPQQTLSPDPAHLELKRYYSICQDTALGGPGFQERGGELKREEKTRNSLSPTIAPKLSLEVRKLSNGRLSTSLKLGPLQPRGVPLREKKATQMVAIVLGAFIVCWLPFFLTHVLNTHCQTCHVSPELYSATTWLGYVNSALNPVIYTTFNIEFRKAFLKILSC
histaminergic H1 receptor, sequence (P35367 whole entry): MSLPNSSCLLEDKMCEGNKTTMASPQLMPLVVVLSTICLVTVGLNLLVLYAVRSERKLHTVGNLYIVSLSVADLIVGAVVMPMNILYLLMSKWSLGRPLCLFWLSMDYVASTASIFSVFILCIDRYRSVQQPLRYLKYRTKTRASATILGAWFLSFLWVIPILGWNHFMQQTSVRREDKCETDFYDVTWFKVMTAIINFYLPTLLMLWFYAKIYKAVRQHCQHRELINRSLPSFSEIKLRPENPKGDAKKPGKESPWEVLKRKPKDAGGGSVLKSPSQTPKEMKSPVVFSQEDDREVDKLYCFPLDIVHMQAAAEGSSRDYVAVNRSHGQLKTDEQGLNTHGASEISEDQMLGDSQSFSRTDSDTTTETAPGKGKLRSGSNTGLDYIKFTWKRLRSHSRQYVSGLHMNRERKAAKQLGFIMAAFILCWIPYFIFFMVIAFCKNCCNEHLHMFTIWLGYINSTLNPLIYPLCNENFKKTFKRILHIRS
dopaminergic D2 receptor, sequence (P14416 1-414 isoform P14416-2): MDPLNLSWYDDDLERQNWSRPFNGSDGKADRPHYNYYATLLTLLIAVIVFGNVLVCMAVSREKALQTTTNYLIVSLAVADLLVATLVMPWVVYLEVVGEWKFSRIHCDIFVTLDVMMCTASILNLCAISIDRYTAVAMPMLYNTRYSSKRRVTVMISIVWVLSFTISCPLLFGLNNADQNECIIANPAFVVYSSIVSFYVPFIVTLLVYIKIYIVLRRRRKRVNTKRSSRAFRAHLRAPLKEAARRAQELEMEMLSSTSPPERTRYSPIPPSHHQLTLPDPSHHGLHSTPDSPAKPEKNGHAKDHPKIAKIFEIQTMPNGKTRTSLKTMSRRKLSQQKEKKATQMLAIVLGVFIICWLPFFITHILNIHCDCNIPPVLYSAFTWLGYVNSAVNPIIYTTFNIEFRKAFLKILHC
serotoninergic 5-HT2A receptor, sequence (P28223 whole entry): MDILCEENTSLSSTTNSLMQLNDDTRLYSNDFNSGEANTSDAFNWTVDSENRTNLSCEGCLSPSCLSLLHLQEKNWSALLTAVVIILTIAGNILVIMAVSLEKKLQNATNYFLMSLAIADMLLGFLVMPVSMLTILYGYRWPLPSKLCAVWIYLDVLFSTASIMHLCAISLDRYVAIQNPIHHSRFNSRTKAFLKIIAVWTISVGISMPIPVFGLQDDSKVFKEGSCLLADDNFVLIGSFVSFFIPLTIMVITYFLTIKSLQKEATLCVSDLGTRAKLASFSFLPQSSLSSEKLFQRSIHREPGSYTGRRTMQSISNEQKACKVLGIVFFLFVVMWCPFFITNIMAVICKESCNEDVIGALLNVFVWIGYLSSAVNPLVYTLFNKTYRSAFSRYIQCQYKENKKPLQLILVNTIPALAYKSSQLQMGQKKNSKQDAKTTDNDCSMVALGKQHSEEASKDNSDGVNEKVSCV

Take `O=c1[nH]c2cccc(N3CCN(CCCNS(=O)(=O)c4cccc(F)c4)CC3)c2[nH]1` [Compound 176, 3-Fluoro-N-[3-[4-(2-oxo-1,3-dihydrobenzimidazol-4-yl)piperazin-1-yl]propyl]benzenesulphonamide]: the inhibition at 1 µM at dopaminergic D3 receptor is 95%; in test [1], 97%; at adrenergic α2C receptor it was 44%; in test [2], 7%; in test [3], 29%; in [4], 9%. Also, the inhibition at 1 µM was 80% in [5]; -3% in test [6]; 8% in [7]; 89% on dopaminergic D2 receptor; 6% at muscarinic M3 receptor. For the same compound, the “σ [%]” value in the test on sigma σ receptor is given as −25%. Further, the “α1 [%]” value with adrenergic α1 receptor was found to be 77%.
Consider `O=S(=O)(NCCCCN1CCC(c2noc3cc(F)ccc23)CC1)c1ccc(F)c(F)c1` [Compound 295, 3,4-Difluoro-N-[4-[4-(6-fluoro-1,2-benzoxazol-3-yl)piperidin-1-yl]butyl]benzenesulphonamide], for which the inhibition at 1 µM at dopaminergic D3 receptor came out at 98%; in test [1] it was 68%; on adrenergic α2C receptor, 97%; in [2], 99%; in [3] it was 93%; in [4] it was 51%. For the same compound, the inhibition at 1 µM in test [5] stood at 99%; in test [6], 16%; in [7], 95%; on dopaminergic D2 receptor, 95%; on muscarinic M3 receptor, 19%. Further, the “σ [%]” value in the test with sigma σ receptor is recorded as 63%. In addition, the “α1 [%]” value in the test on adrenergic α1 receptor was determined as 96%.
For the compound `O=S(=O)(NCCCCN1CCN(c2nsc3ccccc23)CC1)c1ccc2c(c1)OCO2` [Compound 245, N-[4-[4-(1,2-Benzothiazol-3-yl)piperazin-1-yl]butyl]-1,3-benzodioxole-5-sulphonamide], the inhibition at 1 µM on dopaminergic D3 receptor is 97%; in test [1], 99%; on adrenergic α2C receptor, 101%; in test [2], 99%; in [3], 82%; in [4], 72%. The inhibition at 1 µM was 98% in test [5]; 38% in [6]; 98% in test [7]; 97% at dopaminergic D2 receptor; 25% on muscarinic M3 receptor. The “σ [%]” value in the test with sigma σ receptor is 52%. In addition, the “α1 [%]” value in the test on adrenergic α1 receptor is 96%.
Take `CC(C)(C)c1ccc(S(=O)(=O)NCCCCN2CCC(c3noc4cc(F)ccc34)CC2)cc1` [Compound 301, 4-tert-Butyl-N-[4-[4-(6-fluoro-1,2-benzoxazol-3-yl)piperidin-1-yl]butyl]benzenesulphonamide]: the inhibition at 1 µM at dopaminergic D3 receptor came to 96%; in [1], 77%; at adrenergic α2C receptor, 98%; in [2], 101%; in test [3], 94%; in [4] it was 79%. Further, the inhibition at 1 µM in test [5] turned out to be 98%; in test [6], 45%; in [7] it was 88%; at dopaminergic D2 receptor it was 96%; on muscarinic M3 receptor, 18%. Further, in the test on sigma σ receptor, the “σ [%]” value is 73%. In addition, in the test with adrenergic α1 receptor, the “α1 [%]” value is listed as 96%.
As for `O=S(=O)(NCCCN1CCN(c2nsc3ccccc23)CC1)c1ccc(C(F)(F)F)cc1` [Compound 257, N-[3-[4-(1,2-Benzothiazol-3-yl)piperazin-1-yl]propyl]-4-(trifluoromethyl)benzenesulphonamide], the inhibition at 1 µM came out at 100% at dopaminergic D3 receptor; 99% in [1]; 99% on adrenergic α2C receptor; 101% in test [2]; 94% in [3]; 83% in test [4]. The inhibition at 1 µM in [5] amounted to 101%; in test [6], 93%; in test [7] it was 91%; on dopaminergic D2 receptor, 99%; at muscarinic M3 receptor, 12%. The “σ [%]” value with sigma σ receptor came to 57%. Further, the “α1 [%]” value with adrenergic α1 receptor is listed as 94%.

The values above are taken from patent publication US8822517B2, “Arylosulfonamides for the treatment of CNS diseases” (Adamed SP. Z O.O., priority 2010, dated 2014).
